Assay results: patent publication US20250136606A1, “MODULATORS OF TRPML, THEIR COMPOSITIONS AND METHODS OF USE” (Caraway Therapeutics, Inc., priority 2021, published 2025)

Key:
Type in all cases: cell-based
TRPML2 = biological target: T1, TRPML2 (Homo sapiens, UniProt Q8IZK6); experiment: Fluorescent TRPML2 assay (performed as for TRPML1, substituting the TRPML2 subtype)
T1 construct: expressed in transfected cells
T1 sequence (Q8IZK6 1-566): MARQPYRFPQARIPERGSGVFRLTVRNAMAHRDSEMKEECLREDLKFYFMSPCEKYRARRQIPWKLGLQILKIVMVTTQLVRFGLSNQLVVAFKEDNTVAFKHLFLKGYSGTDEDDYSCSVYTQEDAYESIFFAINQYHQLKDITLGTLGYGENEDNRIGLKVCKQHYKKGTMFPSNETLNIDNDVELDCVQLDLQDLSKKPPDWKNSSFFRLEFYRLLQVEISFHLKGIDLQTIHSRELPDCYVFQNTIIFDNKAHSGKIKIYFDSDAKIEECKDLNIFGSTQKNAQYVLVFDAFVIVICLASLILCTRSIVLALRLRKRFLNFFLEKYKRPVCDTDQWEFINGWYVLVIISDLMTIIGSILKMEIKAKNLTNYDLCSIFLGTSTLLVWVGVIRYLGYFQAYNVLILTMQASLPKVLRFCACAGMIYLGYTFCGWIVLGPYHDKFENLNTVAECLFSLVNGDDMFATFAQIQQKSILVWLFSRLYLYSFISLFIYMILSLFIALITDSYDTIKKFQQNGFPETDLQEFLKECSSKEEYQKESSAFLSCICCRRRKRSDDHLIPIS
In short: (§1)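 Calcium-influx readout: Fluo4 fluorescence at 480/540 nm, normalised to positive and negative controls per plate, EC50 fitted by non-linear regression. Cells were HEK-293 Trex stable lines, channel expression induced overnight with 0.5 ug/mL doxycycline; tested at 20 micromolar down to 6 nanomolar final, half-log steps, triplicate.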

TRPML3 = biological target: T2, TRPML3 (Homo sapiens, UniProt Q8TDD5); experiment: Fluorescent TRPML3 assay (performed as for TRPML1, substituting the TRPML3 subtype)
T2 construct: expressed in transfected cells
T2 sequence (Q8TDD5 1-553): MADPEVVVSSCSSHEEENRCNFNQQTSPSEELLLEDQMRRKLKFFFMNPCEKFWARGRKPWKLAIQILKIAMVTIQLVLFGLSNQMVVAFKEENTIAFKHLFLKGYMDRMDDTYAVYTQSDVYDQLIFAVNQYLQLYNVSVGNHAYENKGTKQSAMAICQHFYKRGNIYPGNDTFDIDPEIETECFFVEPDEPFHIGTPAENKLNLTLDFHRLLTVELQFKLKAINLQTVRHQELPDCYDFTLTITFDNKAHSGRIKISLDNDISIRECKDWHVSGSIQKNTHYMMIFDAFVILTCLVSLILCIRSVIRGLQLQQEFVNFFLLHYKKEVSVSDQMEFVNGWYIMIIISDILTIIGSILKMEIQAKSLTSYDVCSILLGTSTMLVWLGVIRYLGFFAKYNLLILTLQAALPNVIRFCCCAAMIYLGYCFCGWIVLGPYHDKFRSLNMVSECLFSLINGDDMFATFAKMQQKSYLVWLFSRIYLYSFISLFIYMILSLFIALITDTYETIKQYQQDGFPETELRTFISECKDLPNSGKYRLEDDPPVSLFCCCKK
In short: as §1

TRPML1 = TRPML1 (Homo sapiens, UniProt Q9GZU1); experiment: Fluorescent TRPML1 assay (Fluo4-AM calcium fluorescence in doxycycline-induced HEK-293 Trex cells)
Chain of TRPML1 (Q9GZU1 whole entry L15A/L16A/L577A/L578A, form open): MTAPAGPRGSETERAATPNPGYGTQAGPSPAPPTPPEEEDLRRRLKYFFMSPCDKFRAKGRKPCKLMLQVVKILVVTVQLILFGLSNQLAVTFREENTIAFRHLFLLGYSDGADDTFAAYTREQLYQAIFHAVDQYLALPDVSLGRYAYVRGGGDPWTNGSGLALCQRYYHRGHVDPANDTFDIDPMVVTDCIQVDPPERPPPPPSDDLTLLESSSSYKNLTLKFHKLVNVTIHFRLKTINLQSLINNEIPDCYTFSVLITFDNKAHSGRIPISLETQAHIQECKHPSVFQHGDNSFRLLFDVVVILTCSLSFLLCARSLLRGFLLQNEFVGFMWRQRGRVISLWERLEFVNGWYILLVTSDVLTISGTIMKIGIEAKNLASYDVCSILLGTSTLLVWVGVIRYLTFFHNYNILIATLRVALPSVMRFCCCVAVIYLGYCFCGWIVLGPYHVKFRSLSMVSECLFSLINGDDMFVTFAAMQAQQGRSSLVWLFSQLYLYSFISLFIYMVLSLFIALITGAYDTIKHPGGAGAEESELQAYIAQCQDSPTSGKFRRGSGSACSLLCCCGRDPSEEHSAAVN
In short: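 hTRPML1 (mutated for cell-surface expression) in HEK-293 Trex, dox 0.5 ug/mL o/n; Fluo4-AM 1 uM ~60 min, then ~60 min de-esterification, dark; modified Ringer's + 10 mM Ca. Cmpds 20 uM–6 nM final, half-log, n=3. Ex480/Em540; % activity vs ctrls; EC50 by nonlinear regression.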

EC50 (TRPML2) [nM]	EC50 (TRPML3) [nM]	EC50 (TRPML1) [nM]	SMILES
< 100	< 100	< 100	CCc1cn(-c2cc(F)ccn2)c2ncnc(N3C[C@@H](C)N(C(=O)OC(C)(C)C)C[C@@H]3C)c12 [Compound 697, tert-butyl (2R,5S)-4-(5-ethyl-7-(4-fluoropyridin-2-yl)-7H-pyrrolo[2,3-d]pyrimidin-4-yl)-2,5-dimethylpiperazine-1-carboxylate]
100 to 500	< 100	< 100	CC(C)c1cn(-c2cc(F)ccn2)c2ncnc(N3C[C@@H](C)N(C(=O)OC(C)(C)C)C[C@@H]3C)c12 [Compound 698, tert-butyl (2R,5S)-4-(7-(4-fluoropyridin-2-yl)-5-isopropyl-7H-pyrrolo[2,3-d]pyrimidin-4-yl)-2,5-dimethylpiperazine-1-carboxylate]
100 to 500	< 100	< 100	CC(C)c1cn(-c2cc(C(F)(F)F)ccn2)c2ncnc(N3C[C@@H](C)N(C(=O)OC(C)(C)C)C[C@@H]3C)c12 [Compound 699, tert-butyl (2R,5S)-4-(5-isopropyl-7-(4-(trifluoromethyl)pyridin-2-yl)-7H-pyrrolo[2,3-d]pyrimidin-4-yl)-2,5-dimethylpiperazine-1-carboxylate]
100 to 500	< 100	< 100	CC(C)c1cn(-c2cc(C#N)ccn2)c2ncnc(N3C[C@@H](C)N(C(=O)OC(C)(C)C)C[C@@H]3C)c12 [Compound 700, tert-butyl (2R,5S)-4-(7-(4-cyanopyridin-2-yl)-5-isopropyl-7H-pyrrolo[2,3-d]pyrimidin-4-yl)-2,5-dimethylpiperazine-1-carboxylate]
> 2000	100 to 500	< 100	Cc1cn(-c2cc(F)ccn2)c2ccnc(N3C[C@@H](C)N(C(=O)OC(C)(C)C)C[C@@H]3C)c12 [Compound 701, tert-butyl (2R,5S)-4-(1-(4-fluoropyridin-2-yl)-3-methyl-1H-pyrrolo[3,2-c]pyridin-4-yl)-2,5-dimethylpiperazine-1-carboxylate]
500 to 2000	500 to 2000	< 100	Cc1cn(-c2cc(C(F)(F)F)ccn2)c2ccnc(N3C[C@@H](C)N(C(=O)OC(C)(C)C)C[C@@H]3C)c12 [Compound 702, tert-butyl (2R,5S)-2,5-dimethyl-4-(3-methyl-1-(4-(trifluoromethyl)pyridin-2-yl)-1H-pyrrolo[3,2-c]pyridin-4-yl)piperazine-1-carboxylate]
< 100	< 100	< 100	C[C@H]1CN(C(=O)OC(C)(C)C)CCN1c1nccc2c1c(-c1ccccc1F)cn2-c1cccc(F)c1 [Compound 703, tert-butyl (S)-4-(3-(2-fluorophenyl)-1-(3-fluorophenyl)-1H-pyrrolo[3,2-c]pyridin-4-yl)-3-methylpiperazine-1-carboxylate]
< 100	< 100	< 100	C[C@@H]1CN(c2nccc3c2c(C2CC2)cn3-c2cccc(F)c2)CCN1C(=O)OC(C)(C)C [Compound 704, tert-butyl (R)-4-(3-cyclopropyl-1-(3-fluorophenyl)-1H-pyrrolo[3,2-c]pyridin-4-yl)-2-methylpiperazine-1-carboxylate]
500 to 2000	< 100	< 100	Cc1cn(-c2cc(C#N)ccn2)c2ccnc(N3C[C@@H](C)N(C(=O)OC(C)(C)C)C[C@@H]3C)c12 [Compound 705, tert-butyl (2R,5S)-4-(1-(4-cyanopyridin-2-yl)-3-methyl-1H-pyrrolo[3,2-c]pyridin-4-yl)-2,5-dimethylpiperazine-1-carboxylate]
500 to 2000	100 to 500	100 to 500	C[C@H]1CN(C(=O)OC(C)(C)C)CCN1c1nccc2c1c(C1CCC1)cn2-c1cccc(F)c1 [Compound 706, tert-butyl (S)-4-(3-cyclobutyl-1-(3-fluorophenyl)-1H-pyrrolo[3,2-c]pyridin-4-yl)-3-methylpiperazine-1-carboxylate]
